Data from article PMC7708037, “Targeting OGG1 arrests cancer cell proliferation by inducing replication stress” (Nucleic Acids Research, 2020).

Tested on: CD3+ T-cells
Test: CD3 flow cytometry assay (T-cell survival)
Assay type: cell-based
Set-up: Survival of CD3+ T-cells (flow cytometry): dose or concentration left out as unconfirmed
Experimental: The experiment was performed on blood cells from 4 different healthy individuals, with three replicates each. Human peripheral blood mononuclear cells were isolated from fresh buffy coats obtained from healthy donors via the Karolinska Hospital, Stockholm, Sweden. For separation, Ficoll-Paque PLUS density medium (17144003, GE Healthcare) and SepMate separation tubes (85450, StemCell) were used, according to manufacturer's instructions. Briefly, buffy coat diluted 1:1 with PBS and layered on 15 ml of Ficoll-Paque PLUS in the SepMate tubes was spun down for 10 min at […]. The upper layer of the tube content was then poured into new falcon tubes and washed twice with PBS.
Cells were seeded out in round bottom 96-well plates (83.3925.500, Sarstedt) in RPMI Medium 1640 containing GlutaMAX™ (61870-010, ThermoFisher) supplemented with 10% human AB+ male heat inactivated clotted whole blood serum (H5667, Sigma-Aldrich) and 100 U/ml penicillin/streptomycin (15140122, Gibco). […] Only viable cells were counted, using a TC20™ automated cell counter (Bio-Rad) and Trypan blue (1450021, Bio-Rad). […]
10 000 events from an FSC-SSC gate set on the typical living lymphocyte population were collected and the data was compensated and analyzed using FlowJo 10.5.3. […] The number of CD3 positive, viable events was quantified and then divided by the number of Precision Count Beads™ collected per tube. […]

Question: Which results are given for O=C(Nc1ccc(I)cc1)N1CCC(n2c(=O)[nH]c3c(Br)cccc32)CC1 [TH5487]?
Answer: Survival of CD3+ T-cells (flow cytometry) (Dynabeads-activated, 6 days): well tolerated; Tolerance by primary T-cells (the same dose (10 μM), healthy donors): well tolerated
